Source: ChEMBL document CHEMBL1212791 (Antimicrob Agents Chemother, 2010)

Legend:
Assay type in all cases: ADME, organism-based
[1] = Terminal disposition rate in liver transplant patient with end-stage liver disease at 200 mg/kg, po bid; parameters: dose 200 mg/kg, route oral; settings: human, in vivo, read-out: Activity (converted)
[2] = Terminal half life in liver transplant patient with end-stage liver disease at 200 mg/kg, po bid; parameters: dose 200 mg/kg, route oral; settings: human, in vivo, read-out: beta t1/2 (converted)
[3] = Tmax in liver transplant patient with end-stage liver disease at 200 mg/kg, po bid; parameters: dose 200 mg/kg, route oral; settings: human, in vivo
[4] = Cmax in liver transplant patient with end-stage liver disease at 200 mg/kg, po bid; parameters: dose 200 mg/kg, route oral; settings: human, in vivo
[5] = tested on: Homo sapiens; assay: Clast in liver transplant patient with end-stage liver disease at 200 mg/kg, po bid; parameters: dose 200 mg/kg, route oral; settings: in vivo
[6] = AUC (0 to infinity) in liver transplant patient with end-stage liver disease at 200 mg/kg, po bid; parameters: time infinity, dose 200 mg/kg, route oral; settings: human, in vivo
[7] = tested on: Homo sapiens; assay: AUMC (0 to infinity) in liver transplant patient with end-stage liver disease at 200 mg/kg, po bid; parameters: dose 200 mg/kg, route oral; settings: in vivo
[8] = Volume of distribution at steady state with respect to bioavailability in liver transplant patient with end-stage liver disease at 200 mg/kg, po bid; settings: human, in vivo, read-out: Vc/F
[9] = Mean residence time in liver transplant patient with end-stage liver disease at 200 mg/kg, po bid; parameters: dose 200 mg/kg, route oral; settings: human, in vivo
[10] = tested on: Homo sapiens; assay: Plasma concentration in liver transplant patient with end-stage liver disease at 200 mg/kg, po bid; parameters: dose 200 mg/kg, route oral; settings: in vivo

C[C@@H](c1ncncc1F)[C@](O)(Cn1cncn1)c1ccc(F)cc1F [VORICONAZOLE]
k el [1]: 1.67e-05 s⁻¹
half-life [2]: 15 h
Tmax [3]: 1.8 h
Cmax [4]: 2900 ng/mL
Clast [5]: 1600 ng/mL
AUC(0-inf) [6]: 25900 ng·h/mL
AUMC [7]: 2557.5 hr.hr.ug/ml
Vd/F [8]: 94.5 L
MRT [9]: 78.2 h
Cp [10]: 1000 ng/mL
